In patent publication US12286389B2, “Crystalline form a of 2, 2-bis(4-fluorophenyl)-2-phenylacetamide and preparation method therefor and application thereof” (SHENZHEN RENTAI PHARMATECH LTD., priority 2019, dated 2025):

Key:
Assay type in all cases: physicochemical
[1] = Hygroscopicity study by dynamic vapor sorption (DVS); conditions: 25° C., RH 10% per step, 10 min per step
Procedure: Dynamic Vapor Sorption DVS
Model: DVS intrinsic (SMS, British);
Method: 25° C., relative humidity is stepped up at a rate of 10%, the judgment standard is change in moisture content is <0.02% over a 10-minute period.
Dynamic vapor sorption (DVS) experiment are performed for crystal form A in Example 2 to obtain DVS curves under the following conditions: the temperature is 25° C., the relative humidity (RH) is stepped up from RH 0 to RH 90% at a rate of RH 10% per step, with 10 min for each step to reach equilibrium.

[2] = Light stability of the crystal form (XRPD comparison with day 0); conditions: 25° C., 4500 Lux, XRPD vs day 0
Procedure: (1) Light stability: the test sample is placed in an environment having a temperature of 25° C. and a light condition of 4500 Lux for 5 days and 10 days, respectively, to test the stability of the crystal form, which are compared with XRPD pattern of the crystal form A on day 0.
(1) Light stability: by referring to the same method of light stability test for crystal A, the test sample is placed in an environment having a temperature of 25° C. and a light condition of 4500 Lux for 5 days to test the stability of the crystal form, which is compared with XRPD pattern of the crystal form I on day 0.

[3] = High-temperature stability of the crystal form (XRPD comparison with day 0); conditions: 60° C., XRPD vs day 0
Procedure: (2) High-temperature stability: the test sample is placed at a temperature of 60° C. for 5 days and 10 days, respectively, to test the stability of the crystal form, which are compared with XRPD pattern of the crystal form A on day 0.
(2) High-temperature stability: by referring to the same method of high-temperature stability test for crystal A, the test sample is placed at a temperature of 60° C. for 5 days to test the stability of the crystal form, which is compared with XRPD pattern of the crystal form I on day 0.

[4] = High-humidity stability 1 of the crystal form (XRPD comparison with day 0); conditions: 92.5% RH, 25° C., XRPD vs day 0
Procedure: (§1) (3) High-humidity stability 1: the test sample is placed in an environment having a humidity of 92.5% RH and a temperature of 25° C. for 5 days and 10 days, respectively, to test the stability of the crystal form, which are compared with XRPD pattern of the crystal form A on day 0.
as §1, with “1: by referring to the same method of high-humidity stability test 1 for crystal A,” for “1:”, “days” for “days and 10 days, respectively,”, “I” for “A”

[5] = High-humidity stability 2 of the crystal form (XRPD comparison with day 0); conditions: 75% RH, 40° C., XRPD vs day 0
Procedure: (§2) (4) High-humidity stability 2: the test sample is placed in an environment having a humidity of 75% RH and a temperature of 40° C. for 5 days and 10 days, respectively, to test the stability of the crystal form, which are compared with XRPD pattern of the crystal form A on day 0.
as §2, with “2: by referring to the same method of high-humidity stability test 2 for crystal A,” for “2:”, “days” for “days and 10 days, respectively,”, “I” for “A”

Row | Compound | weight change in each step of 10 min [1] | light stability of the crystal form ([2]; 5 days and 10 days) | high-temperature stability of the crystal form ([3]; 5 days and 10 days) | high-humidity stability 1 of the crystal form ([4]; 5 days and 10 days) | high-humidity stability 2 of the crystal form ([5]; 5 days and 10 days) | light stability of the crystal form ([2]; 5 days) | high-temperature stability of the crystal form ([3]; 5 days) | high-humidity stability 1 of the crystal form ([4]; 5 days) | high-humidity stability 2 of the crystal form ([5]; 5 days)
1 | NC(=O)C(c1ccccc1)(c1ccc(F)cc1)c1ccc(F)cc1 [crystal form A, 2,2-bis(4-fluorophenyl)-2-phenylacetamide] | less than 0.02% | good light stability | good high-temperature stability | good high-humidity stability | good high-humidity stability |  |  |  | 
2 | NC(=O)C(c1ccccc1)(c1ccc(F)cc1)c1ccc(F)cc1 [crystal form I, 2,2-bis(4-fluorophenyl)-2-phenylacetamide, reference compound] |  |  |  |  |  | unstable under lights and easily transforms into crystal form A | unstable under high temperatures and easily transforms into crystal form A | unstable under high humidity and easily transforms into crystal form A | unstable under high humidity and easily transforms into crystal form A
